From paper PMC11056980 (Journal of medicinal chemistry, 2024) come the findings set out here.

The term IC50 denotes the midpoint of a concentration-inhibition curve. By CLint scaled is commonly meant the rate of metabolic loss divided by the concentration. Low readings indicate greater metabolic stability, high ones faster metabolism.

Data set [1] concerns the target SARS-CoV-2 M^Pro (Severe acute respiratory syndrome coronavirus 2, UniProt P0DTD1). In kind it is biochemical. As to conditions: 20 nM M^Pro, 30 min preincubation, 10 μM Sub3.
Data set [2] can be described thus: in vitro. As to conditions: human.
Data set [3] deals with SARS-CoV-2 strain BA.1. In kind it is cell-based.
Data set [4] concerns SARS-CoV-2 strain XBB.1.5. In kind it is cell-based.
Data set [5] is described as follows: in vitro. As to conditions: human, microsomes, pH 7.4.

Consider `C[C@@H](OC(C)(C)C)[C@H](NC(=O)OCc1cn(CCOCCOCCOCCC(=O)Nc2cccc3c2C(=O)N(C2CCC(=O)NC2=O)C3=O)nn1)C(=O)N[C@@H](CC1CCCCC1)C(=O)N[C@H](C=O)C[C@@H]1CCNC1=O` (some centres unmarked) [MPD5], for which, in data set [1], it took 36 nM to reach half-maximal inhibition (IC50).

For `CC(C)(CCC(=O)NCCCC(=O)Nc1cccc2c1C(=O)N(C1CCC(=O)NC1=O)C2=O)NC(=O)N[C@H](C(=O)N1C[C@H]2[C@@H]([C@H]1C(=O)N[C@H](C=O)C[C@@H]1CCNC1=O)C2(C)C)C(C)(C)C` (some centres unmarked) [MPD10], the IC50 in data set [1] was 149 nM.

Turning to `CC(C)(CCOCCCCCCOc1cccc2c1C(=O)N(C1CCC(=O)NC1=O)C2=O)NC(=O)N[C@H](C(=O)N1C[C@H]2[C@@H]([C@H]1C(=O)N[C@H](C=O)C[C@@H]1CCNC1=O)C2(C)C)C(C)(C)C` (some centres unmarked) [MPD8], the IC50 in data set [1] was determined as 24 nM. Against the preceding molecule, the IC50 is about 6.2-fold lower.

Take `CN(CCN(C)c1cccc2c1C(=O)N(C1CCC(=O)NC1=O)C2=O)C(=O)CCC(C)(C)NC(=O)N[C@H](C(=O)N1C[C@H]2[C@@H]([C@H]1C(=O)N[C@H](C=O)C[C@@H]1CCNC1=O)C2(C)C)C(C)(C)C` (some centres unmarked) [MPD9]: the 50% inhibitory concentration (IC50) in data set [1] came out at 31 nM.

In turn, `C[C@@H](OC(C)(C)C)[C@H](NC(=O)OCc1cccc(OCCCCCCN(C)CCN(C)c2cccc3c2C(=O)N(C2CCC(=O)NC2=O)C3=O)c1)C(=O)N[C@@H](CC1CCCCC1)C(=O)N[C@H](C=O)C[C@@H]1CCNC1=O` (some centres unmarked) [MPD4] gave an IC50 in data set [1] of 36 nM. The IC50 values of the last two molecules are within 1.5-fold of each other.

In turn, `C[C@@H](OC(C)(C)C)[C@H](NC(=O)OCc1ccccc1)C(=O)N[C@@H](CC1CCCCC1)C(=O)N[C@H](C=O)C[C@@H]1CCNC1=O` [MPI8, reference compound] gave a CC50 at 48 h in data set [2] of 70000 nM.

Take `C[C@@H](OC(C)(C)C)[C@H](NC(=O)OCc1cccc(OCCCCCCOc2cccc3c2C(=O)N(C2CCC(=O)NC2=O)C3=O)c1)C(=O)N[C@@H](CC1CCCCC1)C(=O)N[C@H](C=O)C[C@@H]1CCNC1=O` (some centres unmarked) [MPD2]: the “reduction of viral production” value in data set [3] is on record as 90%. Moreover, the “reduction of viral production” value in data set [4] was determined as 90%. In data set [5], this molecule returned a CLint scaled of 36.3 ± 2.51 mL/min/kg and an intrinsic clearance (CLint scaled) at 1 h, 5 µM of 36.2 mL/min/kg.

In data set [1], `CC(C)(COCCCCCCOc1cccc2c1C(=O)N(C1CCC(=O)NC1=O)C2=O)NC(=O)N[C@H](C(=O)N1C[C@H]2[C@@H]([C@H]1C(=O)N[C@H](C=O)C[C@@H]1CCNC1=O)C2(C)C)C(C)(C)C` (some centres unmarked) [MPD7] showed an IC50 of 35 nM. That is a double-digit nanomolar value.

`C[C@@H](OC(C)(C)C)[C@H](NC(=O)OCc1cccc(OCCCCCCCCOc2cccc3c2C(=O)N(C2CCC(=O)NC2=O)C3=O)c1)C(=O)N[C@@H](CC1CCCCC1)C(=O)N[C@H](C=O)C[C@@H]1CCNC1=O` (some centres unmarked) [MPD3]: the CLint scaled in data set [5] stood at 24.7 ± 0.5 mL/min/kg.

For `C[C@@H](OC(C)(C)C)[C@H](NC(=O)OCc1cn(CCOCCOCCOCCC(=O)N(C)CCN(C)c2cccc3c2C(=O)N(C2CCC(=O)NC2=O)C3=O)nn1)C(=O)N[C@@H](CC1CCCCC1)C(=O)N[C@H](C=O)C[C@@H]1CCNC1=O` (some centres unmarked) [MPD6], the IC50 in data set [1] came out at 111 nM.

`C[C@@H](OC(C)(C)C)[C@H](NC(=O)OCc1cccc(OCCCCOc2cccc3c2C(=O)N(C2CCC(=O)NC2=O)C3=O)c1)C(=O)N[C@@H](CC1CCCCC1)C(=O)N[C@H](C=O)C[C@@H]1CCNC1=O` (some centres unmarked) [MPD1]: the intrinsic clearance (CLint scaled) in data set [5] came to 149 ± 12.7 mL/min/kg.
